One experiment has as its system HIV-IIIb. Put plainly: Test A: Antiviral Assays in MT4 Cells. The experiment is classed as cell-based. The conditions noted are these: Human immunodeficiency virus 1, IIIB, MT4, 120 h, Table I; MT-4 cells infected with HIV-IIIb, 5 days incubation, CellTiter-Glo readout. The method, then: The antiviral properties of a compound disclosed herein may be determined using Test A described below.
Test A: Antiviral Assays in MT4 Cells
For the antiviral assay utilizing MT-4 cells, 0.4 μL of […] test concentration of 3-fold serially diluted compound in DMSO was added to 40 μL of cell growth medium (RPMI 1640, 10% FBS, 1% penicillin/Streptomycin, 1% L-Glutamine, 1% HEPES) in each well of 384-well assay plates (10 concentrations) in quadruplicate.
1 mL aliquots of 2×10e6 MT-4 cells are pre-infected for 1 and 3 hrs respectively, @ 37° C. with 25 μL (MT4) or of either cell growth medium (mock-infected) or a fresh 1:250 dilution of an HIV-IIIb concentrated ABI stock (0.004 m.o.i. for MT4 cells). Infected and uninfected cells are diluted in cell growth medium and 35 μL of 2000 (for MT4) cells is added to each well of the assay plates.
Assay plates were then incubated in a 37° C. incubator. After 5 days of incubation, 25 μl of 2× concentrated CellTiter-Glo™ Reagent (catalog # G7573, Promega Biosciences, Inc., Madison, Wis.) was added to each well of the assay plate. Cell lysis was carried out by incubating at room temperature for 2-3 min and then chemiluminescence was read using the Envision reader (PerkinElmer).
With `Cc1cc2ccc(C#CC(O)(c3ccccc3)C(F)(F)F)cc2c(-c2ccc(Cl)cc2)c1[C@H](OC(C)(C)C)C(=O)O` (stereo partly drawn) [Example 9, (2S)-2-tert-butoxy-2-(1-(4-chlorophenyl)-3-methyl-7-(4,4,4-trifluoro-3-hydroxy-3-phenylbut-1-ynyl)naphthalen-2-yl)acetic acid], the EC50 is 186 nM.
Still for that read-out and setting: the same measure for `Cc1cc2ccc(C#CC(C)(O)c3ccc(F)cc3)cc2c(-c2ccc(Cl)cc2)c1[C@H](OC(C)(C)C)C(=O)O` (stereo partly drawn) [Example 8, (2S)-2-tert-butoxy-2-(1-(4-chlorophenyl)-7-(3-(4-fluorophenyl)-3-hydroxybut-1-ynyl)-3-methylnaphthalen-2-yl)acetic acid]: 120 nM.
In the case of `Cc1ccc2c(-c3ccc4c5c(ccnc35)CCO4)c([C@H](OC(C)(C)C)C(=O)O)c(C)cc2c1` (atropisomer, axis not shown) [Example 16, (S)-2-tert-butoxy-2-((S)-1-(2,3-dihydropyrano[4,3,2-de]quinolin-7-yl)-3,6-dimethylnaphthalen-2-yl)acetic acid], it took 1740 nM to reach a half-maximal effect (EC50).
Same read-out and setting: the figure for `Cc1cc2ccc(C#CC(C)(O)c3ccncc3)cc2c(-c2ccc(Cl)cc2)c1[C@H](OC(C)(C)C)C(=O)O` (stereo partly drawn) [Example 12, (2S)-2-tert-Butoxy-2-(1-(4-chlorophenyl)-7-(3-hydroxy-3-(pyridin-4-yl)but-1-ynyl)-3-methylnaphthalen-2-yl)acetic acid] is 32 nM.
Still for that read-out and setting: the same measure for `CCCC(C)(C)O[C@H](C(=O)O)c1c(C)cc2ccccc2c1-c1ccc2c3c(ccnc13)CCO2` (atropisomer, axis not shown) [Example 29, (S)-2-((R)-1-(2,3-Dihydropyrano[4,3,2-de]quinolin-7-yl)-3-methylnaphthalen-2-yl)-2-(2-methylpentan-2-yloxy)acetic acid]: 84 nM; for `Cc1cc2ccc(C#CC(C)(O)c3ccccc3)cc2c(-c2ccc(Cl)cc2)c1[C@H](OC(C)(C)C)C(=O)O` (stereo in doubt) [Example 14, (S)-2-tert-butoxy-2-(1-(4-chlorophenyl)-7-((R)-3-hydroxy-3-phenylbut-1-ynyl)-3-methylnaphthalen-2-yl)acetic acid]: 56 nM.
The same measure, in the same setting: the figure for `Cc1nc(C)c(C(C)(O)C#Cc2ccc3cc(C)c([C@H](OC(C)(C)C)C(=O)O)c(-c4ccc(Cl)cc4)c3c2)s1` (stereo partly drawn) [Example 13, (2S)-2-tert-Butoxy-2-(1-(4-chlorophenyl)-7-(3-(2,4-dimethylthiazol-5-yl)-3-hydroxybut-1-ynyl)-3-methylnaphthalen-2-yl)acetic acid] is 65 nM.
In turn, `Cc1cc2ccc(C#CC(C)(O)c3ccccn3)cc2c(-c2ccc(Cl)cc2)c1[C@H](OC(C)(C)C)C(=O)O` (stereo partly drawn) [Example 10, (2S)-2-tert-Butoxy-2-(1-(4-chlorophenyl)-7-(3-hydroxy-3-(pyridin-2-yl)but-1-ynyl)-3-methylnaphthalen-2-yl)acetic acid] displayed an EC50 of 62 nM.
Same read-out and setting: the same measure for `CCOc1c(C#N)ccc2c(-c3ccc4c5c(ccnc35)CCO4)c([C@H](OC(C)(C)C)C(=O)O)c(C)cc12` (atropisomer, axis not shown) [Example 22, (S)-2-tert-Butoxy-2-((R)-6-cyano-1-(2,3-dihydropyrano[4,3,2-de]quinolin-7-yl)-5-ethoxy-3-methylnaphthalen-2-yl)acetic acid]: 14 nM.

The experiment is the same for the next values; noted with them: Human immunodeficiency virus 1, IIIB, MT4, 120 h, Table II; MT-4 cells infected with HIV-IIIb, 5 days incubation, CellTiter-Glo readout.
As for `Cc1cc2cc(-c3cnc(N4CCCC4)nc3)ccc2c(-c2ccc3c4c(ccnc24)CCO3)c1[C@H](OC(C)(C)C)C(=O)O` (atropisomer, axis not shown) [Example 51], the response was half-maximal at 20.5 nM (EC50).
The same measure, in the same setting: the same measure for `Cc1cc2cc(-c3cncnc3C(C)C)ccc2c(-c2ccc3c4c(ccnc24)CCO3)c1[C@H](OC(C)(C)C)C(=O)O` (atropisomer, axis not shown) [Example 62]: 41.1 nM.
On the same count and under the same terms, the same measure for `Cc1cc2cc(-c3cnc(N4CCN(C)CC4)nc3)ccc2c(-c2ccc3c4c(ccnc24)CCO3)c1[C@H](OC(C)(C)C)C(=O)O` (atropisomer, axis not shown) [Example 35]: 4.4 nM.
With `Cc1cc2ccccc2c(-c2ccc3c4c(ccnc24)CCO3)c1[C@H](OC(C)(C)CCCCS(N)(=O)=O)C(=O)O` (atropisomer, axis not shown) [Example 95], the EC50 is 386 nM.
On the same count and under the same terms, the same measure for `Cc1cc2ccccc2c(-c2ccc3c4c(ccnc24)CCO3)c1[C@H](OC(C)(CF)CF)C(=O)O` (atropisomer, axis not shown) [Example 105]: 15.4 nM; for `COc1ncc(-c2ccc3c(-c4ccc5c6c(ccnc46)CCO5)c([C@H](OC(C)(C)C)C(=O)O)c(C)cc3c2)c(O)n1` (atropisomer, axis not shown) [Example 47]: 59.2 nM; for `COc1ncc(-c2ccc3c(-c4ccc5c6c(ccnc46)CCO5)c([C@H](OC(C)(C)C)C(=O)O)c(C)cc3c2)cn1` (atropisomer, axis not shown) [Example 60]: 12.2 nM.
Same read-out and setting: the same measure for `Cc1cc2ccccc2c(-c2ccc3c4c(ccnc24)CCO3)c1[C@H](OC(C)(C)CCl)C(=O)O` (atropisomer, axis not shown) [Example 99]: 40.5 nM; for `Cc1cc2ccccc2c(-c2ccc3c4c(ccnc24)CCO3)c1C(OC(C)(C)CCl)C(=O)O` (centres unmarked) [Example 100]: 161 nM.
`Cc1cc2cc(-c3cncnc3)ccc2c(-c2ccc3c4c(ccnc24)CCO3)c1[C@H](OC(C)(C)C)C(=O)O` (atropisomer, axis not shown) [Example 66]: a half-maximal effect (EC50) was put at 9.88 nM.
`COc1ncc(-c2ccc3c(-c4ccc5c6c(ccnc46)CCO5)c([C@H](OC(C)(C)C)C(=O)O)c(C)cc3c2)c(OC)n1` (atropisomer, axis not shown) [Example 49] showed an EC50 of 13.8 nM.
Still for that read-out and setting: the same measure for `Cc1cc2cc(-c3cnc(N4CCOCC4)nc3)ccc2c(-c2ccc3c4c(ccnc24)CCO3)c1[C@H](OC(C)(C)C)C(=O)O` (atropisomer, axis not shown) [Example 52]: 16.8 nM.
Still for that read-out and setting: the figure for `Cc1cc2ccccc2c(-c2ccc3c4c(ccnc24)CCO3)c1[C@@H](OC(C)(C)CCl)C(=O)O` (atropisomer, axis not shown) [Example 98] is 19400 nM.

The experiment is the same for the next values; noted with them: Table I; MT-4 cells infected with HIV-IIIb, 5 days incubation, CellTiter-Glo readout.
With `COCC(C)(C)O[C@H](C(=O)O)c1c(C)cc2ccccc2c1-c1ccc2c3c(ccnc13)CCO2` (atropisomer, axis not shown) [Example 26, (2S)-2-((S)-1-(2,3-Dihydropyrano[4,3,2-de]quinolin-7-yl)-3-methylnaphthalen-2-yl)-2-(1-methoxy-2-methylpropan-2-yloxy)acetic acid], a half-maximal effect (EC50) was put at 929 nM.
The same measure, in the same setting: the figure for `CCOCC(C)(C)O[C@H](C(=O)O)c1c(C)cc2ccccc2c1-c1ccc2c3c(ccnc13)CCO2` (atropisomer, axis not shown) [Example 28, (2S)-2-((S)-1-(2,3-Dihydropyrano[4,3,2-de]quinolin-7-yl)-3-methylnaphthalen-2-yl)-2-(1-ethoxy-2-methylpropan-2-yloxy)acetic acid] is 1230 nM.

Staying with this experiment, now noted: Table II; MT-4 cells infected with HIV-IIIb, 5 days incubation, CellTiter-Glo readout.
Consider `Cc1cc2cc(-c3c(C)ncnc3C)ccc2c(-c2ccc3c4c(ccnc24)CCO3)c1[C@H](OC(C)(C)C)C(=O)O` (atropisomer, axis not shown) [Example 58], for which it took 7760 nM to reach a half-maximal effect (EC50).
The same measure, in the same setting: the figure for `Cc1c([C@H](OC(C)(C)C)C(=O)O)c(-c2ccc3c4c(ccnc24)CCO3)c2ccccc2c1C(F)F` (atropisomer, axis not shown) [Example 86] is 131 nM.
The same measure, in the same setting: the same measure for `CC(C)(C)O[C@H](C(=O)O)c1c(-c2ccc3c4c(ccnc24)CCO3)c2ccccc2c2occc12` (atropisomer, axis not shown) [Example 77]: 32400 nM; for `Cc1cc2c(C)c(-c3cncnc3)ccc2c(-c2ccc3c4c(ccnc24)CCO3)c1[C@H](OC(C)(C)C)C(=O)O` (atropisomer, axis not shown) [Example 81]: 3370 nM; for `Cc1c([C@H](OC(C)(C)C)C(=O)O)c(-c2ccc3c4c(ccnc24)CCO3)c2ccccc2c1C(F)F` (atropisomer, axis not shown) [Example 87]: 1310 nM.
Still for that read-out and setting: the same measure for `Cc1cc2c(C)c(-c3cnc(N(C)C)nc3)ccc2c(-c2ccc3c4c(ccnc24)CCO3)c1[C@H](OC(C)(C)C)C(=O)O` (atropisomer, axis not shown) [Example 73]: 8.95 nM; for `CC(C)(C)O[C@H](C(=O)O)c1c(-c2ccc3c4c(ccnc24)CCO3)c2ccccc2c2occc12` (atropisomer, axis not shown) [Example 76]: 117 nM; for `Cc1cc2ccccc2c(-c2ccc3c4c(ccnc24)CCO3)c1[C@H](OC(C)(C)CCF)C(=O)O` (atropisomer, axis not shown) [Example 96]: 6420 nM.
For `Cc1cc2cccc(F)c2c(-c2ccc3c4c(ccnc24)CCO3)c1[C@H](OC(C)(C)C)C(=O)O` (atropisomer, axis not shown) [Example 68], the EC50 is 2940 nM.
The same measure, in the same setting: the same measure for `Cc1cc2cc(-c3cncnc3N)ccc2c(-c2ccc3c4c(ccnc24)CCO3)c1[C@H](OC(C)(C)C)C(=O)O` (atropisomer, axis not shown) [Example 54]: 19400 nM.
`Cc1cc2cc(-c3ccc4c(cnn4C)c3)ccc2c(-c2ccc3c4c(ccnc24)CCO3)c1[C@H](OC(C)(C)C)C(=O)O` (atropisomer, axis not shown) [Example 44] registered an EC50 of 55.6 nM.
